Reference: paper PMC2680961, “Homologous desensitization of signalling by the alpha (α) isoform of the human thromboxane A2 receptor: A specific role for nitric oxide signalling” (Biochimica et Biophysica Acta, 2007)
Changes are numbered by the printed parent chain.

Tests used:
TPα^S331,T337A = target: T1, TPα^S331,T337A (Homo sapiens, UniProt P21731, S331A/T337A); test: [3H]SQ29,548 radioligand binding, Scatchard analysis, HEK.TPα^S331,T337A
T1 construct: expressed in transfected cells
T1 sequence (P21731 1-343 S331A/T337A): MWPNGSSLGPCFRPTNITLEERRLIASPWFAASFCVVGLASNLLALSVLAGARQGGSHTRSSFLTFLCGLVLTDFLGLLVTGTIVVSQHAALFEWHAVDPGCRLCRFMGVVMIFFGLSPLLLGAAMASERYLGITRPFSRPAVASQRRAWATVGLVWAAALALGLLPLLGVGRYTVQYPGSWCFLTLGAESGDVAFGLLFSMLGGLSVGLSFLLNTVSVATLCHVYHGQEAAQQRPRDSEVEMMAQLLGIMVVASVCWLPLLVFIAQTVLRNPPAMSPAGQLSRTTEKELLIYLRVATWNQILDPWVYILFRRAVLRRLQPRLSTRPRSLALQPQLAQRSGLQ
Experimental: (§1) Cells were harvested by centrifugation at 500×g at 4 °C for 5 min and washed three times with ice-cold Ca^2+/Mg^2+-free phosphate-buffered saline (PBS). TP radioligand binding assays were carried out at 30 °C for 30 min in 100 μl reactions in the presence of 0–40 nM [^3H] […] Protein determinations were carried out using the Bradford assay.
(§2) Radioligand binding and Scatchard analysis data were analysed using GraphPad Prisim V4.0 programme (GraphPad Software Inc., San Diego CA, USA). Statistical analyses were carried out using the unpaired Student's t test using the Statworks Analysis Package. p-values ≤ 0.01 indicated statistically significant differences.

TP^Δ328 = target: T2, TP^Δ328 (Homo sapiens, UniProt P21731); test: [3H]SQ29,548 radioligand binding, Scatchard analysis, HEK.TP^Δ328
T2 construct: expressed in transfected cells
T2 sequence (P21731 1-328): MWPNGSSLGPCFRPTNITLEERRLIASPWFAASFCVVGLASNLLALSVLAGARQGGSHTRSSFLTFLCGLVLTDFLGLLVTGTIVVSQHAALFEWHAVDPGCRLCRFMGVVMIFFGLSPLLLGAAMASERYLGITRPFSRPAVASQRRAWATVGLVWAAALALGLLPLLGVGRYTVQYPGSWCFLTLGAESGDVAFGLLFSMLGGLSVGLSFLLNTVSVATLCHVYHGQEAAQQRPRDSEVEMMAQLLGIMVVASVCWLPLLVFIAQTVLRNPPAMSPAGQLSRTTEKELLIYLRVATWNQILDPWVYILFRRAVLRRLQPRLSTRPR
Experimental: as §1, §2

TPα^S331,T337,S340A = target: T3, TPα^S331,T337,S340A (Homo sapiens, UniProt P21731, S331A/S340A/T337A); test: Intracellular calcium mobilization, HEK.TP^S331,T337,S340A cells; assay type: cell-based; conditions: for Δ[Ca2+]i, U46619-induced: HEK.TP^S331,T337,S340A
T3 construct: expressed in transfected cells
T3 sequence (P21731 1-343 S331A/T337A/S340A): T1 sequence (P21731 1-343 S331A/T337A) with S340A
Experimental: Measurement of intracellular calcium mobilization ([Ca^2+]i) in FURA2/AM preloaded HEK 293 cell lines (2 × 10^6 cells/dish), each transiently co-transfected with pADVA (10 μg), and pCMV:Gαq (25 μg), was carried out as previously described. To investigate the effect of GRK2/βARK1 on TP-mediated [Ca^2+]i mobilization, HEK.TPα or HEK.TPβ cells (2 × 10^6 cells/dish) were co-transfected with pADVA (10 μg), pCMV:Gαq (25 μg) along with pRK5:βARK1^495–689 (25 μg), encoding a dominant negative form of GRK2/βARK1[39]. Approximately 48 h post-transfection, cells were harvested by scraping, washed twice in ice-cold PBS and resuspended in HBSSHB (modified Ca^2+/Mg^2+-free Hank's buffered salt solution, containing […], pH 7.67, 0.1% bovine serum albumin (BSA)) buffer at 10^7 cells/ml and incubated in the dark with 5 μM FURA2/AM for 45 min at 37 °C. […] For each measurement of [Ca^2+]i mobilization, aliquots of cells were diluted to 0.825 × 10^6 cells/ml in HBSSHB, 1 mM CaCl2 and FURA2 fluorescence was recorded (2 ml aliquots of cells) at 37^ °C with gentle stirring with a Perkin Elmer-Cetus LS50-B spectrofluorometer at excitation wavelengths of 340 nm and 380 nm and emission wavelength of 510 nm, respectively.
Cells were stimulated with the TP agonist U46619 (1 μM) and changes in [Ca^2+]i mobilization were monitored as a function of time. To assess agonist-mediated homologous desensitization, cells (0.825 × 10^6 cells/ml; 2 ml per assay) were stimulated with 1 μM U46619 (Primary stimulation) or, as a control, with the vehicle for 4 min; thereafter, cells were collected by centrifugation (900×g, 5 min); were washed twice in 2 ml HBSSHB, 1 mM CaCl2; and finally resuspended in 2 ml HBSSHB,1 mM CaCl2 and were left to recover over various time intervals (ranging from 0 to 60 min); thereafter, cells re-stimulated with 1 μM U46619 (Secondary stimulation) and changes in [Ca^2+]i mobilization were monitored as a function of time. […]

SMILES	Bmax (pmol/mg protein ± S.E.M.) (TPα^S331,T337A) [pmol/mg protein]	Bmax (pmol/mg protein ± S.E.M.) (TP^Δ328) [pmol/mg protein]	Δ[Ca2+]i, U46619-induced (TPα^S331,T337,S340A; primary 1 μM U46619 4 min) [nM]	Δ[Ca2+]i, U46619-induced (TPα^S331,T337,S340A; secondary 1 μM U46619 at 15 min) [nM]	secondary U46619 [Ca2+]i response relative to primary response (TPα^S331,T337,S340A; TPα^S331,T337,S340A) [%]
O=C(O)CCC/C=C\C[C@@H]1[C@H](CNNC(=O)Nc2ccccc2)[C@H]2CC[C@@H]1O2 [SQ29,548]	3.23 ± 0.03	4.47 ± 0.04			
CCCCC[C@H](O)/C=C/[C@@H]1[C@@H](C/C=C\CCCC(=O)O)[C@H]2CO[C@@H]1C2 [U46619]			195 ± 12	67 ± 8.2	~34
